Laboratory results from patent publication US20090004664A1, “HCV NS3 replicon shuttle vectors” (ROCHE PALO ALTO LLC, priority 2007, published 2009).

What was measured:
Format in all cases: cell-based, HCV
[1] = tested on: Genotype-1a template NS3 shuttle vector (H77NS3) replicon; experiment: Replicon phenotypic assay (transient replicon, firefly luciferase), Genotype-1a template NS3 shuttle vector; settings: Hepatitis C virus, Huh-7; H77 NS3 replicon in cured Huh7 cells; inhibitor added 24 h post-transfection, luciferase read 72 h later
Procedure: (§1) Five micrograms of DNA plasmids were linearized by Sca I restriction enzyme (Roche). After overnight digestion at 37° C., the DNA was purified using Qiagen PCR purification kit. One microgram of linearized DNA was used for the in vitro transcription using T7 Mega script kit following manufacturer's protocol (Ambion). After 2 hours of incubation at 37° C., DNase treatment was performed for 30 minutes at 37° C. to remove the DNA template. In vitro transcribed RNA was then purified using NucAway Spin Column following manufacturer's protocol (Ambion).
(§2) Cured hepatoma cell line Huh7 were cultured at 37° C. in a humidified atmosphere with 5% CO2 in Dulbecco's Modified Eagle Medium (DMEM) supplemented with Glutamax™ and 100 mg/ml sodium pyruvate (Cat# 10569-010). The medium was further supplemented with 10% (v/v) FBS (Cat# 16000-036) and 1% (v/v) penicillin/streptomycin (Cat# 15140-122). All reagents were from Invitrogen/Gibco.
(§3) Four million cured Huh7 cells were transfected with 5 μg of in vitro transcribed RNA using electroporation. […] Inhibitors were added 24 hours post-transfection in 3 fold dilutions at a final DMSO concentration of 1% and firefly luciferase reporter signal was read 72 hours after addition of inhibitors using the Luciferase Assay system (Promega, cat #E1501). […]

[2] = tested on: replicon containing patient-derived NS3 TN132-1 (NS3 V36M, GT1a clinical isolate TN132); experiment: Replicon phenotypic assay, replicon containing patient-derived NS3 TN132-1; settings: Hepatitis C virus, Huh-7
Procedure: as §1, §2, §3

[3] = tested on: replicon containing patient-derived NS3 TN132-2 (NS3 V36M, GT1a clinical isolate TN132); experiment: Replicon phenotypic assay, replicon containing patient-derived NS3 TN132-2; settings: Hepatitis C virus, Huh-7
Procedure: as §1, §2, §3

[4] = tested on: replicon containing patient-derived NS3 TN132-6 (NS3 V36M, GT1a clinical isolate TN132); experiment: Replicon phenotypic assay, replicon containing patient-derived NS3 TN132-6; settings: Hepatitis C virus, Huh-7
Procedure: as §1, §2, §3

[5] = tested on: replicon containing patient-derived NS3 2209-23; experiment: Replicon phenotypic assay, replicon containing patient-derived NS3 2209-23; settings: Hepatitis C virus, Huh-7; 2209-23 replicon in cured Huh7 cells; inhibitor added 24 h post-transfection, luciferase read 72 h later
Procedure: as §1, §2, §3

[6] = tested on: replicon containing patient-derived NS3 of sample TN-132 (V36M mutation in the NS3 gene); experiment: Replicon phenotypic assay, patient sample TN-132; settings: sample TN-132 carrying V36M mutation in the NS3 gene
Procedure: as §1, §2, §3

SMILES: CCC[C@H](NC(=O)[C@@H]1[C@H]2CCC[C@H]2CN1C(=O)[C@@H](NC(=O)[C@@H](NC(=O)c1cnccn1)C1CCCCC1)C(C)(C)C)C(=O)C(=O)NC1CC1 [VX-950]
- IC50 [1]: 440 nM
- IC50 [2]: 2370 nM
- IC50 [3]: 2610 nM
- IC50 [4]: 1470 nM
- IC50 [5]: 630 nM
- sensitivity of sample TN-132 to the inhibitor [6]: reduced sensitivity
